# Test results from patent US11458112B2, “Compositions and methods for inducing defecation” (Dignify Therapeutics, LLC, priority 2019, dated 2022).
# Marks after values point to notes of the source that are not given here.
# Key:
# [1] = tested on: healthy subjects and subjects having irritable bowel syndrome (IBS); settings: concentrations of 0.01% and 0.1%, both groups; cited from earlier work
# [2] = tested on: anesthetized acute T9-transected SCI rats; assay: Rectal pressure after intrarectal capsaicin-soaked cotton ball in anesthetized acute SCI rats; assay type: in vivo, rat; settings: cotton ball soaked in 50 uL of 0.2% solution, 2 female rats
# Method: (§1) General: In vivo studies were performed in anesthetized, acute spinal cord injured (SCI) rats, anesthetized spinal intact rats, and awake chronic spinal cord injured rats. Adult female and male Sprague Dawley rats (Charles River, N.C.; 250-650 g) were housed at an AAALAC approved facility in cages (1-3/cage) with free access to water and food in a colony room that was maintained on a 12 hr/12 hr light/dark cycle.
# For the acute SCI model, animals were anesthetized with urethane (1.0-1.4 g/kg subcutaneous injection), the skin and muscle on the dorsal side at the level of the thoracic vertebrae were incised, and the spinal cord was carefully exposed by a laminectomy and transected at T8-T10 spinal level. Gelfoam® was placed at the incision site and the muscle and skin overlying the vertebrae were closed with wound clips. The spinal cord was transected at least 60 min before starting the experimental protocol.
# (§2) For all rectal contractility studies, animals were anesthetized with urethane (1.0-1.4 g/kg subcutaneous injection). Surgical procedures were then performed with the addition of isoflurane anesthesia (0.05-1.5% in O2) as needed.
# (§3) Rectal Contractility: Rectal pressures were measured via a latex balloon catheter (length 1.5-4 cm) inserted (˜4 cm) into the distal rectal region. The catheter was connected to a pressure monitoring system. […] Parameters measured included peak rectal pressure response, duration of time above baseline activity (in the 1st 5 min after drug administration), area under the curve (measured during the 1st 5 min after drug administration) and the number of contractile events after vehicle and drug administration.
# Dosing: Intrarectal capsaicin was administered in a dose range of 0.1-2% wt/vol. […]
# Methods: Capsaicin was administered to 2 anesthetized acute T9-transected SCI female rats instrumented for rectal pressure recording via a balloon catheter inserted into the rectum 2-4 cm from the anus. […] Top and bottom traces in FIG. 4 were recorded from separate rats.
# [3] = tested on: anesthetized spinal intact rats; assay: Rectal pressure (balloon catheter) after intrarectal capsaicin solution in anesthetized spinal intact rats; assay type: in vivo, rat
# Method: as §1, §2, §3
# (§4) Dosing: Intrarectal capsaicin was administered in a dose range of 0.1-2% wt/vol. Capsaicin was dissolved in 95% ethanol at 50-100 mg/mL and then diluted to 2-20 mg/mL with either saline or water to form a suspension and administered intrarectally as a solution using a micropipette, blunt tip tube (22 G) or as a small solution-soaked cotton ball (3-5 mm diameter). Vehicle doses were prepared using the same concentrations of ethanol in water or saline.
# Methods: Capsaicin was administered to anesthetized spinal intact male and female rats (N=4 males and 1 female) instrumented for rectal pressure recording via a balloon catheter inserted into the rectum 2-4 cm from the anus. Capsaicin was administered as 0.2% solution (0.05-0.32 mL of a 2 mg/ml solution in 4.7 or 9.5% ethanol/saline) via a PE50 tube that was inserted into the rectum alongside the balloon catheter. For comparison, vehicle was administered to all rats using the same techniques.
# Methods: Capsaicin was administered to an anesthetized spinal intact male rat instrumented for rectal pressure recording via a balloon catheter inserted into the rectum 2-4 cm from the anus. Capsaicin was administered as 0.2% solution (0.2%, 0.25 mL) in ethanol/saline via a PE50 tube that was inserted into the rectum alongside the balloon catheter. Vehicle was administered to all rats using the same techniques. Administration of capsaicin solution is indicated by filled arrow in FIG. 3.
# conscious cSCI rats = assay: Defecation in metabolism cages after intrarectal dosing in conscious chronic spinal cord injured rats; assay type: in vivo, rat; settings: for Number of fecal pellets / Total fecal weight: 0.1 mL intrarectal, within 10 min of dosing, N=6, mean + SD
# Method: as §1
# For chronic SCI model preparation, animals were anesthetized with a mixture of ketamine/xylazine (50-100 mg/kg and 5-10 mg/kg intraperitoneal, respectively), the skin and muscle on the dorsal side at the level of the thoracic vertebrae were incised, and the spinal cord was carefully exposed by a laminectomy and transected at either T3-T4 or T8-T10 spinal level. Gelfoam® was placed at the incision site and the muscle and skin overlying the vertebrae were closed with wound clips. The animal recovered from surgery for 7-10 weeks before being studied.
# Defecation in awake animals was monitored in metabolism cages. Animals were habituated to handling and the metabolism cages on 2-4 occasions prior to dosing and were then randomized to a treatment arm. Rats were weighed and placed into metabolism cages for 10 min prior to intrarectal administration of vehicle or capsaicin. The number of fecal pellets and timing of events were recorded by trained personnel that were blinded to treatment. Fecal weight is weighed at 10 and 30 min post dosing. Animals were re-tested 2-3 days later in a cross over design.
# as §4
# Methods: Defecation in rats was monitored in metabolism cages. Chronic spinal cord injured (cSCI) rats were habituated to handling and the metabolism cages on 2-4 occasions before dosing, then randomized to the treatment arm. Rats were weighed and placed into metabolism cages for 10 min prior to receiving an intrarectal dose of vehicle or capsaicin. Since manual stimulation during intrarectal dosing in conscious rats can induce defecation, the tip of a small cotton swab was inserted into the anus prior to dose administration, to stimulate natural defecation of any fecal pellets that were located in the region of the anal sphincter. […] Once the anal sphincter had ceased contracting/relaxing (15-90 s) a fine catheter (22 G soft/flexible blunt tip catheter) was used to dose the vehicle or capsaicin, as this method produced little manual stimulation. Capsaicin was prepared as a 0.2 or 2% solution (2 or 20 mg/ml in diluted ethanol/water; vehicle corresponding to each dose concentration was 1.9 and 19% ethanol/water, respectively). Dose volumes were 0.1 mL and administered via the catheter inserted ˜1 inch through the anus into the rectum. The number of fecal pellets and timing of events were recorded by trained personnel blinded to the treatment. Fecal weight was recorded at 10 and 30 min post dosing. Animals were re-tested 2-3 days later in a cross over design.
# [4] = 0.2% capsaicin solution intrarectal
# [5] = 0.2%, 0.25 mL intrarectal, one male rat (Example 3)
structure (smiles),measurement,setting,value
"COc1cc(CNC(=O)CCCC/C=C/C(C)C)ccc1O [Capsaicin, 8-methyl-N-vanillyl-6-nonenamide]",reported sensations following intrarectal administration,[1],"discomfort and “an urge to defecate”, but not defecation"
same,duration of rectal pressure increase,[2],< 5 min
same,onset of rectal pressure increase,[2],< 2 min
same,rats with capsaicin-induced rectal pressure increase,[2],both rats
same,response to repeat dosing,[3]; 0.2% capsaicin repeated 20 min after the initial dose,evoked a similar response
same,duration of rectal pressure increase,[3]; [4],5 min
same,onset time of rectal pressure increase,[3]; [4],1 to 2 min
same,rats with transient rectal pressure increase,"[3]; 0.2% capsaicin solution intrarectal, 0.05-0.32 mL, N=4 males and 1 female",5 of 5
same,expulsion of rectal balloon catheter,[3]; [5],expelled from the rectum through the anus
same,onset of increase in rectal pressure,[3]; [5],≤ 1 min
same,number and total weight of fecal pellets expelled compared to vehicle,conscious cSCI rats; 0.2 or 2% intrarectal,significantly increased
same,time to completion of defecation,conscious cSCI rats; 0.2 or 2% intrarectal,≤ 10 min
same,time to defecation,conscious cSCI rats; 0.2 or 2% intrarectal,≤ 5 min
same,Number of fecal pellets,conscious cSCI rats; Capsaicin 0.2%,2.17 + 0.84 ^+
same,Total fecal weight,conscious cSCI rats; Capsaicin 0.2%,1.169 + 0.0489 g
same,Number of fecal pellets,conscious cSCI rats; Capsaicin 2%,2.00 + 0.68 ^+
same,Total fecal weight,conscious cSCI rats; Capsaicin 2%,1.265 + 0.414 * g
same,defecation between 10-30 min post-dosing,conscious cSCI rats; any group,No defecation was observed
